Like-named read-outs stand apart in the source and are kept apart here.
Columns and labels:
Assay type in all cases: cell-based
HT-29 = assay: Inhibition of cell growth by colorimetric SRB assay, HT-29; settings: Homo sapiens, HT-29, 48 hours exposure; for CC50: cell killing, read-out: LC50 (the source's name); for IC (total growth inhibition): read-out: TGI
Method in brief: (§1)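 Absorbance of solubilized bound SRB (490 nm) quantified cell growth and viability after cells were exposed to compound for 48 h. Seeding was 5×10^3 cells per well in RPMI 1640/10% FBS, with 18 h attachment beforehand. GI, TGI and LC were calculated from means of triplicate wells.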

LoVo-Dox = assay: Inhibition of cell growth by colorimetric SRB assay, LOVO-DOX; settings: Homo sapiens, LOVO-DOX, 48 hours exposure; for LC50 (concentration for 50% cell killing): read-out: LC50; for IC (total growth inhibition): read-out: TGI
Method in brief: as §1

HeLa-APL = assay: Inhibition of cell growth by colorimetric SRB assay, HELA-APL; settings: Homo sapiens; for CC50: cell killing, read-out: LC50 (the source's name)
Method in brief: as §1

HeLa = assay: Inhibition of cell growth by colorimetric SRB assay, HELA; settings: Homo sapiens, HELA, 48 hours exposure; for CC50: cell killing, read-out: LC50 (the source's name); for IC (total growth inhibition): read-out: TGI
Method in brief: as §1

IGROV-ET = assay: Inhibition of cell growth by colorimetric SRB assay, IGROV-ET; settings: Homo sapiens, IGROV-ET, 48 hours exposure; for CC50: cell killing, read-out: LC50 (the source's name); for IC (total growth inhibition): read-out: TGI
Method in brief: as §1

LoVo = assay: Inhibition of cell growth by colorimetric SRB assay, LOVO; settings: Homo sapiens, LOVO, 48 hours exposure; for LC50: cell killing, read-out: LC50; for IC (total growth inhibition): read-out: TGI
Method in brief: as §1

A-549 = assay: Inhibition of cell growth by colorimetric SRB assay, A-549; settings: Homo sapiens, A549, A-549, 48 hours exposure; for CC50: cell killing, read-out: LC50 (the source's name); for IC (total growth inhibition): read-out: TGI
Method in brief: as §1

SK-MEL-28 = assay: Inhibition of cell growth by colorimetric SRB assay, MEL-28; settings: Homo sapiens, SK-MEL-28, MEL-28, 48 hours exposure; for CC50: cell killing, read-out: LC50 (the source's name); for IC (total growth inhibition): read-out: TGI
Method in brief: as §1

PANC-1 = assay: Inhibition of cell growth by colorimetric SRB assay, PANC-1; settings: Homo sapiens, PANC-1, 48 hours exposure; for CC50: cell killing, read-out: LC50 (the source's name); for IC (total growth inhibition): read-out: TGI
Method in brief: as §1

IGROV = assay: Inhibition of cell growth by colorimetric SRB assay, IGROV; settings: Homo sapiens, 48 hours exposure; for CC50: cell killing, read-out: LC50 (the source's name); for IC (total growth inhibition): read-out: TGI
Method in brief: as §1

SK-BR-3 = assay: Inhibition of cell growth by colorimetric SRB assay, SK-BR-3; settings: SK-BR-3, 48 hours exposure; for GI50 / CC50: Homo sapiens; for CC50: cell killing, read-out: LC50 (the source's name); for TGI: total growth inhibition
Description: (§2) The finality of these assays is to interrupt the growth of a “in vitro” tumor cell culture by means a continued exhibition of the cells to the sample to be testing.
(§3) Inhibition of Cell Growth by Colorimetric Assay.
(§4) A colorimetric type of assay, using sulforhodamine B (SRB) reaction has been adapted for a quantitative measurement of cell growth and viability (following the technique described by P. A. Skehan, et al., J. Natl. CancerInst. 1990, 82, 1107-1112).
(§5) This form of assay employs 96 well cell culture microplates of 9 mm diameter (T. Mosmann et al., J. of Immuological Methods 1983, 65, 55-63; G. T. Faircloth et al., J. of Tissue and Culture Methods 1988, 11, 201-205). Most of the cell lines are obtained from American Type Culture Collection (ATCC) derived from different human cancer types.
(§6) Cells are maintained in RPMI 1640 10% FBS, supplemented with 0.1 g/L penicillin and 0.1 g/L streptomycin sulfate and then incubated at 37° C., 5% CO2 and 98% humidity. For the experiments, cells were harvested from subconfluent cultures using trypsin and resuspended in fresh medium before plating.
(§7) Cells are seeded in 96 well microtiter plates, at 5×10^3 cells per well in aliquots of 195 μL medium, and they are allowed to attach to the plate surface by growing in drug free medium for 18 hours. Afterward, samples are added in aliquots of 5 μL in a ranging from 10 to 10^−8 μg/mL, dissolved in DMSO/EtOH/PBS (0.5:0.5:99). After 48 hours exposure, the antitumor effect are measured by the SRB methodology: cells are fixed by adding 50 μL of cold 50% (wt/vol) trichloroacetic acid (TCA) and incubated for 60 minutes at 4° C. Plates are washed with deionizer water and dried. One hundred μl of SRB solution (0.4% wt/vol in 1% acetic acid) is added to each microliter well and incubated for 10 minutes at room temperature. Unbound SRB is removed by washing with 1% acetic acid. Plates are air dried and bound stain is solubilized with Tris buffer. Optical densities are read on a automated spectrophotometric plate reader at a single wavelength of 490 nm.
(§8) The values for mean +/−SD of data from triplicate wells are calculated. Some parameters for cellular responses can be calculated: GI=growth inhibition, TGI=total growth inhibition (cytostatic effect) and LC=cell killing (cytotoxic effect).

K-562 = assay: Inhibition of cell growth by colorimetric SRB assay, K-562; settings: Homo sapiens, K562, K-562, 48 hours exposure; for CC50: cell killing, read-out: LC50 (the source's name); for IC (total growth inhibition): read-out: TGI
Description: as §2, §3, §4, §5, §6, §7, §8

LNCaP = assay: Inhibition of cell growth by colorimetric SRB assay, LN-caP; settings: Homo sapiens, LN-caP, 48 hours exposure; for CC50: cell killing, read-out: LC50 (the source's name); for IC (total growth inhibition): read-out: TGI
Description: as §2, §3, §4, §5, §6, §7, §8

DU-145 = assay: Inhibition of cell growth by colorimetric SRB assay, DU-145; settings: Homo sapiens, DU-145, 48 hours exposure; for CC50: cell killing, read-out: LC50 (the source's name); for IC (total growth inhibition): read-out: TGI
Method in brief: as §1

## C/C=C\[C@H](C)[C@H]1O[C@@]1(C)[C@@H](O)[C@@H](CO)C(=O)[C@@H](CO)[C@@H](O)CC(=O)CC [3c + 4c]
HT-29
  GI50: 0.564 µM
  CC50: 26.8 µM
  IC (total growth inhibition): 6.69 µM
LoVo-Dox
  GI50: 0.846 µM
  LC50 (concentration for 50% cell killing): 26.8 µM
  IC (total growth inhibition): 6.18 µM
HeLa-APL; HELA-APL, 48 hours exposure
  CC50: 26.8 µM
HeLa-APL; HELA-APL, 48 hours exposure, read-out: GI50
  GI50: 0.593 µM
HeLa-APL; HELA-APL, 48 hours exposure, total growth inhibition, read-out: TGI
  IC (total growth inhibition): 8.67 µM
HeLa
  GI50: 0.62 µM
  CC50: 26.8 µM
  IC (total growth inhibition): 4.78 µM
IGROV-ET
  GI50: 0.703 µM
  CC50: 26.8 µM
  IC (total growth inhibition): 6.95 µM
LoVo
  GI50: 0.714 µM
  LC50: 26.8 µM
  IC (total growth inhibition): 7.01 µM
A-549
  GI50: 0.913 µM
  CC50: 26.8 µM
  IC (total growth inhibition): 13.4 µM
SK-MEL-28
  GI50: 0.634 µM
  CC50: 26.8 µM
  IC (total growth inhibition): 7.25 µM
PANC-1
  GI50: 1.03 µM
  CC50: 26.8 µM
  IC (total growth inhibition): 13.3 µM
IGROV
  GI50: 0.553 µM
  CC50: 20.9 µM
  IC (total growth inhibition): 3.57 µM
SK-BR-3
  GI50: 1.16 µM
  CC50: 26.8 µM
  TGI: 6.07E−06 Molar
K-562
  GI50: 4.59 µM
  CC50: 26.8 µM
  IC (total growth inhibition): 11.9 µM
LNCaP
  GI50: 0.703 µM
  CC50: 26.8 µM
  IC (total growth inhibition): 4.56 µM
DU-145
  GI50: 0.55 µM
  CC50: 26.8 µM
  IC (total growth inhibition): 4.16 µM

## C/C=C\[C@H](C)[C@H]1OC1(C)[C@@H](O[Si](C)(C)C(C)(C)C)[C@@H](CO)C(=O)[C@H](CO)[C@@H](O)CC(=O)CC (stereo partly drawn) [20a + 20c]
HT-29
  GI50: 17.1 µM
  CC50: ≥ 20.5 µM
  IC (total growth inhibition): 20.5 µM
LoVo-Dox
  GI50: 85.1 µM
  LC50 (concentration for 50% cell killing): ≥ 20.5 µM
  IC (total growth inhibition): 20.5 µM
HeLa-APL; 48 h
  GI50: 12.9 µM
HeLa-APL; HELA-APL, 48 hours exposure
  CC50: ≥ 20.5 µM
HeLa
  GI50: 13.3 µM
  CC50: ≥ 20.5 µM
  IC (total growth inhibition): 20.5 µM
IGROV-ET
  GI50: 13.8 µM
  CC50: ≥ 20.5 µM
  IC (total growth inhibition): 20.5 µM
LoVo
  GI50: 10.4 µM
  LC50: ≥ 20.5 µM
  IC (total growth inhibition): 20.5 µM
A-549
  GI50: ≥ 20.5 µM
  CC50: ≥ 20.5 µM
  IC (total growth inhibition): 20.5 µM
SK-MEL-28
  GI50: 16.3 µM
  CC50: ≥ 20.5 µM
  IC (total growth inhibition): 20.5 µM
PANC-1
  GI50: 14 µM
  CC50: ≥ 20.5 µM
  IC (total growth inhibition): 20.5 µM
IGROV
  GI50: 14.1 µM
  CC50: ≥ 20.5 µM
  IC (total growth inhibition): 20.5 µM
SK-BR-3
  GI50: 11.1 µM
  CC50: ≥ 20.5 µM
  TGI: 2.05E−05 Molar
K-562
  GI50: 7.75 µM
  CC50: ≥ 20.5 µM
  IC (total growth inhibition): 20.5 µM
LNCaP
  GI50: 8.42 µM
  CC50: ≥ 20.5 µM
  IC (total growth inhibition): 20.5 µM
DU-145
  GI50: 10.7 µM
  CC50: ≥ 20.5 µM
  IC (total growth inhibition): 20.5 µM

## C/C=C\[C@H](C)[C@H]1OC1(C)[C@@H](O[Si](C)(C)C(C)(C)C)[C@@H](CO)C(=O)[C@H](CO)[C@H](O)CC(=O)CC (stereo partly drawn) [20b + 20d]
HT-29
  GI50: 20.5 µM
  CC50: 20.5 µM
  IC (total growth inhibition): 20.5 µM
LoVo-Dox
  GI50: 20.5 µM
  LC50 (concentration for 50% cell killing): 20.5 µM
  IC (total growth inhibition): 20.5 µM
HeLa-APL; HELA-APL, 48 hours exposure
  CC50: 20.5 µM
HeLa
  GI50: 20.5 µM
  CC50: 20.5 µM
  IC (total growth inhibition): 20.5 µM
IGROV-ET
  GI50: 20.5 µM
  CC50: 20.5 µM
  IC (total growth inhibition): 20.5 µM
LoVo
  GI50: 20.5 µM
  LC50: 20.5 µM
  IC (total growth inhibition): 20.5 µM
A-549
  GI50: 20.5 µM
  CC50: 20.5 µM
  IC (total growth inhibition): 20.5 µM
SK-MEL-28
  GI50: 20.5 µM
  CC50: 20.5 µM
  IC (total growth inhibition): 20.5 µM
PANC-1
  GI50: 9.37 µM
  CC50: 20.5 µM
  IC (total growth inhibition): 20.5 µM
IGROV
  GI50: 20.5 µM
  CC50: 20.5 µM
  IC (total growth inhibition): 20.5 µM
SK-BR-3
  GI50: 14.9 µM
  CC50: 20.5 µM
  TGI: 2.05E−05 Molar
K-562
  GI50: 10.3 µM
  CC50: 20.5 µM
  IC (total growth inhibition): 20.5 µM
LNCaP
  GI50: 12.4 µM
  CC50: 20.5 µM
  IC (total growth inhibition): 20.5 µM
DU-145
  GI50: 20.5 µM
  CC50: 20.5 µM
  IC (total growth inhibition): 20.5 µM

Reference: patent US7521478B2, “Total synthesis of myriaporones” (Pharma Mar, S.A.U., priority 2002, dated 2009)
